Experimental data published in US12509446B2, “FYN and VEGFR2 kinase inhibitors” (ROTTAPHARM BIOTECH S.R.L., priority 2019, dated 2025).

Legend:
Fyn = Fyn (Homo sapiens (Human), UniProt P06241); experiment: Z′-LYTE in vitro Fyn kinase activity assay; type: biochemical; conditions: ATP 50 μM; read-out: FYN KINASE INHIBITION IC50
Outline: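 Z′-LYTE FRET format with full-length active Fyn in 50 mM Hepes pH 7.5, 10 mM MgCl2, 1 mM EGTA, 0.01% Brij-35, 1% DMSO final; 60 minutes at 25° C. Percent phosphorylation from 0% and 100% phosphorylation controls; IC50 by non-linear curve fitting of percent inhibition.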

Yes = Yes (Homo sapiens (Human), UniProt P07947); conditions: read-out: KINASE SELECTIVITY IC50 Yes
Sequence of Yes (P07947 whole entry): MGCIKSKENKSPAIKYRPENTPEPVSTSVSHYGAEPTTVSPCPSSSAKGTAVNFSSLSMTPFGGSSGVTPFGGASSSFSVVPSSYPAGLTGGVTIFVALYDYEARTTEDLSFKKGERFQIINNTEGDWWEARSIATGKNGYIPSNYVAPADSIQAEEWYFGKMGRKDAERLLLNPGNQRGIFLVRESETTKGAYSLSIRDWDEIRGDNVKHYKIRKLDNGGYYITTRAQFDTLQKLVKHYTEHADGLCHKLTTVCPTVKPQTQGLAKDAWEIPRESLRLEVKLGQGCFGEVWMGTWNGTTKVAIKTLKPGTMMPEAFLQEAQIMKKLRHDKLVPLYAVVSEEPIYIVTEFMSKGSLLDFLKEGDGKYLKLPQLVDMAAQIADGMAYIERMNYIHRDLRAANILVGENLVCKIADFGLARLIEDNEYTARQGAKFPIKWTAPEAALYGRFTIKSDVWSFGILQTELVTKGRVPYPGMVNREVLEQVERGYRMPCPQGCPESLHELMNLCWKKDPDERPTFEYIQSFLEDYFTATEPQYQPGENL
Experimental: (§1) The assays were performed in Eurofins Cerep (France). The concentration range of the compound under investigation was from 10^−9 M up to 10^−5 M final concentration.

Jak3 = Jak3 (Homo sapiens (Human), UniProt P52333); conditions: read-out: KINASE SELECTIVITY IC50 Jak3
Sequence of Jak3 (P52333 whole entry): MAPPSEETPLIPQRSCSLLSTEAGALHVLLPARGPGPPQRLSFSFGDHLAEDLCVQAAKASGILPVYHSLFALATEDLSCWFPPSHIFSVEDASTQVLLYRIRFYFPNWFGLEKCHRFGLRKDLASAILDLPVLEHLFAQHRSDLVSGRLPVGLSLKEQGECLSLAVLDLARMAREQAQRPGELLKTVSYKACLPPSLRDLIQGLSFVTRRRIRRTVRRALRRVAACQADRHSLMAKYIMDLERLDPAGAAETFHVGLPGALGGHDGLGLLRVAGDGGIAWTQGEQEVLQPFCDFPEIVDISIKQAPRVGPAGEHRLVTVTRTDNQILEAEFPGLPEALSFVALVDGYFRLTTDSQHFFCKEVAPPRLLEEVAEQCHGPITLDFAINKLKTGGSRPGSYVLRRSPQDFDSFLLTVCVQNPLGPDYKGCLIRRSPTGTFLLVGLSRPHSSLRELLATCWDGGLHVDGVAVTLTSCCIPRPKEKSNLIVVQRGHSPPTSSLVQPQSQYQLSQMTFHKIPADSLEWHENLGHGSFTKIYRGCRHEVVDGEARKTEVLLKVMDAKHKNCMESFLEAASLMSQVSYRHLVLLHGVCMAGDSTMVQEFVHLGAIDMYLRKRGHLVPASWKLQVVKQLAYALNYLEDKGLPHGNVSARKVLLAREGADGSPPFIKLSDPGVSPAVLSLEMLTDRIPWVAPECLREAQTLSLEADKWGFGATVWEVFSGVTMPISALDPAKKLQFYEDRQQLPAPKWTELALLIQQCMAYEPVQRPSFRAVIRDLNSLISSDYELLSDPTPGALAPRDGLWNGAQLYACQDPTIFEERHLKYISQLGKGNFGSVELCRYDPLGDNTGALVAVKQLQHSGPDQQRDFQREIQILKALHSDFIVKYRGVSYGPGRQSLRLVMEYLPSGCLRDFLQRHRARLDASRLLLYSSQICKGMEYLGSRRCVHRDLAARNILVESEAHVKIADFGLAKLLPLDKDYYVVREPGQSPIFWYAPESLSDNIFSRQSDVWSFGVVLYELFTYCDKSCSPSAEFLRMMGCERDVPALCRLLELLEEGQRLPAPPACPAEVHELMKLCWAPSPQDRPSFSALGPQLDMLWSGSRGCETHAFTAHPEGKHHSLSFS
Experimental: as §1

Lyn-A = Lyn-A (Homo sapiens (Human), UniProt P07948); conditions: read-out: KINASE SELECTIVITY IC50 Lyn-A
Sequence of Lyn-A (P07948 whole entry): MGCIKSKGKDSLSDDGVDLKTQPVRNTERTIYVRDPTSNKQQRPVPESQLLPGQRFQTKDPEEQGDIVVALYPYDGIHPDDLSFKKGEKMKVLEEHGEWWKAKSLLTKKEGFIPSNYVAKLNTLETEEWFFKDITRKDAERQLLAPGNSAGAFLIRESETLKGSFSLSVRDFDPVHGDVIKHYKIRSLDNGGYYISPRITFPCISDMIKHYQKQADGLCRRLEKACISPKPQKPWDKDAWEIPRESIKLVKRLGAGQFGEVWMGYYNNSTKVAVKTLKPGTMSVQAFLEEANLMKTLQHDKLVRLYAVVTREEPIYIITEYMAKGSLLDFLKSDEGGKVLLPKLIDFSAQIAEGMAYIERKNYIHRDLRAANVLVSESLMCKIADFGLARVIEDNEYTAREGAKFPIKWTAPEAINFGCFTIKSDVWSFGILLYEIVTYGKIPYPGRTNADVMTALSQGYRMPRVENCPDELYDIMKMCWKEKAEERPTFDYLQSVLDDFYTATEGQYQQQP
Experimental: as §1

FGFR2 = FGFR2 (Homo sapiens (Human), UniProt P21802); conditions: read-out: KINASE SELECTIVITY IC50 FGFR2
Sequence of FGFR2 (P21802 22-821): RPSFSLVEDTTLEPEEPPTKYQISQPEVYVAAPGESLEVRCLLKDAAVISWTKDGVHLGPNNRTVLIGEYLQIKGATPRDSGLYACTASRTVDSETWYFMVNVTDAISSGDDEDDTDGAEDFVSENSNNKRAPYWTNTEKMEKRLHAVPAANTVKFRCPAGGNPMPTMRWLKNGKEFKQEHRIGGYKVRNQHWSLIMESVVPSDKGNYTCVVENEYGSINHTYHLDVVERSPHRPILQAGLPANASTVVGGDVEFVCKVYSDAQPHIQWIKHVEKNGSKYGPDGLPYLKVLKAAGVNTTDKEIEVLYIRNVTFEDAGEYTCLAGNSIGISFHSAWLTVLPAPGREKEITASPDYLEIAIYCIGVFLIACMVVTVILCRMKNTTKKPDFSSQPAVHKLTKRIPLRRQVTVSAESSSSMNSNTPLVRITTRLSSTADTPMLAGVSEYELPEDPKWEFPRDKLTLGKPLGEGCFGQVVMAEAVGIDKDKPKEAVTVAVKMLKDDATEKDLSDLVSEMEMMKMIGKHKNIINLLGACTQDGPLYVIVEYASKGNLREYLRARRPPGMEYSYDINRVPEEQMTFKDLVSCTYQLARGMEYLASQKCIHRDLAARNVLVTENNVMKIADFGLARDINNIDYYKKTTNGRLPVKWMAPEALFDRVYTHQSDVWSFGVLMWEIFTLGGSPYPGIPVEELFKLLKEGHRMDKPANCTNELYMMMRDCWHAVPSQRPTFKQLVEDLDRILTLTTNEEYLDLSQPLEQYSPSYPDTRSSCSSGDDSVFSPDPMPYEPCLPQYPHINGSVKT
Experimental: as §1

Src = Src (Homo sapiens (Human), UniProt P12931); conditions: read-out: KINASE SELECTIVITY IC50 Src
Sequence of Src (P12931 whole entry, looked up): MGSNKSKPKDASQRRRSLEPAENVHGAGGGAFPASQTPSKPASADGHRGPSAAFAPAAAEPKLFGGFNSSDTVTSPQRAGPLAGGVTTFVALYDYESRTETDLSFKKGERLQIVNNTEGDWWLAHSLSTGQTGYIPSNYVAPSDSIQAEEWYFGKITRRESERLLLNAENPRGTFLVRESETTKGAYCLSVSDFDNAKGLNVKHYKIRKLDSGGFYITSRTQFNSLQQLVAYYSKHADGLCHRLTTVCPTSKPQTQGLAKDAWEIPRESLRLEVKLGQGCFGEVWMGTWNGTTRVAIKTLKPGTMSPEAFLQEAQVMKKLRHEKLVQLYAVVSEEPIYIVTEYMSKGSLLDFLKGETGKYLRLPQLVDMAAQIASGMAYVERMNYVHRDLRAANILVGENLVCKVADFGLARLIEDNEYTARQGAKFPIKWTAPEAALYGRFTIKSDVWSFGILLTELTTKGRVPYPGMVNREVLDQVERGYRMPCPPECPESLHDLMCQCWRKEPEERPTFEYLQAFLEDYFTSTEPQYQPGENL
Experimental: as §1

COX2 = experiment: Gene expression in rat articular chondrocytes under IL-1β stimulation, COX2; type: cell-based; conditions: Rattus norvegicus, Chondrocyte; 24 h incubation
IL-1β = experiment: Gene expression in rat articular chondrocytes under IL-1β stimulation, IL-1β; type: cell-based; conditions: Rattus norvegicus, Chondrocyte; 6 h incubation
Outline: (§2)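 Cells are first synchronized in low-supplement medium (DMEM GlutaMAX I 0.4%). They are then exposed together to test compound and 2 ng/ml cytokine. After 6 h, IL-1β and ADAMTS-5 mRNA is quantified, and after 24 h MMP3 and MMP13 mRNA, all by TaqMan PCR against 18S.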

[1] = system: bovine nasal septum cartilage; experiment: Inhibition of cartilage degradation (GAG release) induced by IL-1α in a bovine in vitro model; type: cell-based
Outline: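 Cartilage punches (2 mm) from an 8-month-old male bovine nasal septum were cultured 48 h, then stimulated 48 h with IL-1α […] ± compound in DMEM + 0.1% BSA. Compound doses were set from 48 h rat chondrocyte toxicity. GAG in medium and papain-digested tissue was measured by DMB absorbance at 590 nm; degradation = medium GAG/total GAG × 100.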

IL-6 = experiment: Gene expression in rat articular chondrocytes under IL-1β stimulation, IL-6; type: cell-based; conditions: Rattus norvegicus, Chondrocyte; 6 h incubation
[2] = Pharmacokinetics after administration into the knee joint of rats; type: in vivo; conditions: suspension into the knee joint
ADAMTS-5 = experiment: Gene expression in rat articular chondrocytes under IL-1β stimulation, ADAMTS-5; type: cell-based; conditions: Rattus norvegicus, Chondrocyte; 6 h incubation
Outline: as §2

MMP3 = experiment: Gene expression in rat articular chondrocytes under IL-1β stimulation, MMP3; type: cell-based; conditions: Rattus norvegicus, Chondrocyte; 24 h incubation
Outline: as §2

MMP13 = experiment: Gene expression in rat articular chondrocytes under IL-1β stimulation, MMP13; type: cell-based; conditions: Rattus norvegicus, Chondrocyte; 24 h incubation
Outline: as §2

[3] = system: rat primary articular chondrocytes; experiment: Toxicity analysis (MTT) in rat primary chondrocytes
Experimental: Purified chondrocytes were resuspended in DMEM glutaMAX 10% and plated in a 96X well plate for toxicity analysis and in a 6X well plate for gene expression analysis.
For toxicity analysis cells were then treated with the different compounds for 24 and 48 h. At the end of the incubation time, the medium was removed and was substituted with a mixture 10:1 of DMEM glutaMAX 10%—MTT (2 mg/ml) for 1 h at 37° C. in the cell incubator. After this incubation, the precipitated salt was dissolved with 100 μl of DMSO and the plate was read at 540 nm. The toxicity analysis were performed to decide the maximal non toxic concentration of each compound used in the gene expression assay.

Sequence of Fyn (P06241 whole entry): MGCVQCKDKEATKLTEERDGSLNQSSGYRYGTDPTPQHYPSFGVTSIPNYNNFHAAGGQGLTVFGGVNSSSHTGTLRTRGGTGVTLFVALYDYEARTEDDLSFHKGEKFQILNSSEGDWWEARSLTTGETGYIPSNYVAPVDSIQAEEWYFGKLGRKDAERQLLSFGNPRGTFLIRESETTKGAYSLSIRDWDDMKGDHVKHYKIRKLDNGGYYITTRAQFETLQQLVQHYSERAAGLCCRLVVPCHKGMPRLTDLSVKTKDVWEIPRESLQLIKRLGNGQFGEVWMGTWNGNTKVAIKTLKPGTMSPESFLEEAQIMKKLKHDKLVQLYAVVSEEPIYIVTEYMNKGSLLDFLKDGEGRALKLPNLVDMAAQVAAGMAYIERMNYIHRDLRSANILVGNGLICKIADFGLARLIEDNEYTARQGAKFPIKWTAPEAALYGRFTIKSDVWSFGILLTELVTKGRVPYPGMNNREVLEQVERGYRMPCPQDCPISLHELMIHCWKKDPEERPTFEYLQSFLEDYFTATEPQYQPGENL

**Q.** What does the source list for `Cc1ccc(NC(=O)c2cccc(C(F)(F)F)c2)cc1CCc1cc(Nc2cnccn2)[nH]n1` [Compound 3, N-(4-methyl-3-(2-(5-(pyrazin-2-ylamino)-1H-pyrazol-3-yl)ethyl)phenyl)-3-(trifluoromethyl)benzamide]?
**A.** IC50 (Fyn): 9 nM; IC50 (Yes): 17 nM; IC50 (Jak3): 1760 nM; IC50 (Lyn-A): 59 nM; IC50 (FGFR2): 3000 nM; IC50 (Src): 370 nM; IC50 (COX2): 187 nM; IC50 (IL-1β): 2 nM; inhibition at 1 µM ([1]; Bos taurus, 1 μM, read-out: Bovine cartilage degradation induced by IL-1α, % inhibitory effect at max concentration): 100%; Inhibitory effect on the GAG release ([1]; at max concentration): 95-100%; IC50 (IL-6): 18 nM; Permanence in the synovial fluid and articular tissues (cartilage and synovial fat) [2]: at least 14 days; IC50 (ADAMTS-5): 34 nM; IC50 (MMP3): 323 nM; IC50 (MMP13): 477 nM; First toxic concentration at 48 h in rat primary chondrocytes ([3]; 48 h): 3 µM; First toxic concentration at 24 h ([3]; rat primary chondrocytes, 24 h): 10 µM
